# Laboratory results as given in PMC10066365, “Nemacol is a small molecule inhibitor of C. elegans vesicular acetylcholine transporter with anthelmintic potential” (Nature Communications, 2023).
# “And” between values parts separate entries of the source, which are not always exact repeats. Equal entries are not always repeated. Where two headings read alike, the source gives them in different places.
# Columns and labels:
# rat VAChT = target: T1, rat VAChT (Rattus norvegicus, UniProt Q62666); assay: [3H]Vesamicol competitive radioligand binding, PC12 cells expressing ratVAChT
# T1 construct: expressed in transfected cells; host or cells: rat PC12 (PC12 A123.7) cells, stably transfected; shared by Dr. Ali Roghani (Texas Tech University)
# T1 sequence (Q62666 1-530): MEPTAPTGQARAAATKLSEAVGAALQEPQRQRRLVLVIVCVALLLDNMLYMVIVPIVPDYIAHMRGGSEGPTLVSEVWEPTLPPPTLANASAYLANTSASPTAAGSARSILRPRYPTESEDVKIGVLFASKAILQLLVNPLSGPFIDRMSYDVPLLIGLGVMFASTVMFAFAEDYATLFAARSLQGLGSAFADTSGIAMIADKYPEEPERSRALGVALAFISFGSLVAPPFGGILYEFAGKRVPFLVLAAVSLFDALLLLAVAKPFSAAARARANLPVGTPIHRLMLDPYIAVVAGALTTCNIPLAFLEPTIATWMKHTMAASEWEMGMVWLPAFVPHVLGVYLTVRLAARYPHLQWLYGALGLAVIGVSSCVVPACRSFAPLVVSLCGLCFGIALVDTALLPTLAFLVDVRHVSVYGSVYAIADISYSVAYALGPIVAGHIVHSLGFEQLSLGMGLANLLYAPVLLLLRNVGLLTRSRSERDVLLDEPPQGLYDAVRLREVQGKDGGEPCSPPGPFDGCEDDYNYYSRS
# [1] = test system: Dirofilaria immitis microfilariae; assay: Dirofilaria immitis microfilariae immobility assay (DiroImager, 72 h); settings: Dirofilaria immitis microfilariae
# Summary of the method: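 Motility read after 72 h drug exposure with an image-based high-throughput plate imager, 1% DMSO medium serving as negative control. Missouri-isolate microfilariae, roughly 250 per well, freshly purified and cultured in supplemented RPMI 1640.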
# C. elegans = C. elegans motor phenotype scoring on solid media (Punc/jerky-unc, coiled, paralyzed), wild-type young adults; assay type: in vivo, Caenorhabditis elegans; settings: for atypical locomotion (number of animals) / coiled (number of animals) / no phene (number of animals) / paralyzed (number of animals) / any phene: mean % fraction of young adults exhibiting any phenotype (coiled, jerky-Unc or paralyzed): one hour; for atypical locomotion (number of animals) / coiled (number of animals) / no phene (number of animals) / paralyzed (number of animals): young adults, 20 animals per trial, single technical replicate; for any phene: mean % fraction of young adults exhibiting any phenotype (coiled, jerky-Unc or paralyzed): mean of three biological replicates; for EC50: Caenorhabditis elegans, any motor phenotype after 1 h on solid media, ± 95% CI, read-out: C. elegans - motor disruption EC50
# [2] = test system: Dirofilaria immitis L3/L4; assay: Dirofilaria immitis L3/L4 motility assay (DiroImager, 72 h); settings: Dirofilaria immitis L4
# Pristionchus pacificus = Pristionchus pacificus motor disruption dose-response on solid media, 1 h; settings: for EC50: Pristionchus pacificus, 1 h, read-out: P. pacificus motor disruption EC50; for mean % any phene: any phenotype (coiled, jerky-Unc or paralyzed) at one hour, mean of three biological replicates; for rep 1 atypical locomotion / rep 1 coiled / rep 1 no phene / rep 1 paralyzed / rep 2 atypical locomotion / rep 2 coiled / rep 2 no phene / rep 2 paralyzed / rep 3 atypical locomotion / rep 3 coiled / rep 3 no phene / rep 3 paralyzed: count of 20 animals per trial, one hour
# [3] = [3H]Vesamicol binding, PC12, experiment 1, read-out: expt 1 Ki (M) vs. rat VAChT (PC12)
# [4] = [3H]Vesamicol binding, PC12, experiment 2, read-out: expt 2 Ki (M) vs. rat VAChT (PC12)
# [5] = [3H]Vesamicol binding, rat VAChT (PC12), mean of 2-3 experiments, read-out: mean Ki
# [6] = [3H]Vesamicol displacement, mean, read-out: ratVAChT Ki
compound,measurement,setting,value
CC1CCC(N2CCN(c3ccccc3)CC2)CC1 (stereo not shown) [Nemacol-50],Ki,rat VAChT; [3],1.82e-06 M
same,Ki,rat VAChT; [4],2.05e-06 M
same,Ki,"rat VAChT; [3H]Vesamicol binding, PC12, third experiment column (date expt 3), read-out: expt 2 Ki (M) vs. rat VAChT (PC12)",1.95e-06 M
same,Ki,rat VAChT; [5],1.94e-06 M
same,Ki,rat VAChT; [6],1.94e-06 M
same,"% effect (motility), DIROIM MF",[1]; 0.016 µM,0%
same,"% effect (motility), DIROIM MF",[1]; 0.08 µM,0%
same,"% effect (motility), DIROIM MF",[1]; 0.4 µM,0%
same,"% effect (motility), DIROIM MF",[1]; 2 µM,0%
same,"% effect (motility), DIROIM MF",[1]; 10 µM,0%
same,atypical locomotion (number of animals),C. elegans; 3.75uM,8 and 14 and 7 and 18 and 16
same,coiled (number of animals),C. elegans; 3.75uM,0 and 1
same,no phene (number of animals),C. elegans; 3.75uM,11 and 5 and 12 and 13 and 2 and 4
same,paralyzed (number of animals),C. elegans; 3.75uM,1 and 0
same,"any phene: mean % fraction of young adults exhibiting any phenotype (coiled, jerky-Unc or paralyzed)",C. elegans; 3.75uM,60.8333%
same,atypical locomotion (number of animals),C. elegans; 15uM,10 and 12 and 11 and 17 and 7 and 5
same,coiled (number of animals),C. elegans; 15uM,1 and 0 and 7 and 3 and 4
same,no phene (number of animals),C. elegans; 15uM,2 and 0
same,paralyzed (number of animals),C. elegans; 15uM,7 and 8 and 0 and 9 and 12
same,"any phene: mean % fraction of young adults exhibiting any phenotype (coiled, jerky-Unc or paralyzed)",C. elegans; 15uM,96.6667%
same,atypical locomotion (number of animals),C. elegans; 60uM,1 and 3 and 0 and 6 and 5 and 2
same,coiled (number of animals),C. elegans; 60uM,8 and 11 and 14 and 5 and 6
same,no phene (number of animals),C. elegans; 60uM,1 and 0
same,paralyzed (number of animals),C. elegans; 60uM,10 and 6 and 12
same,"any phene: mean % fraction of young adults exhibiting any phenotype (coiled, jerky-Unc or paralyzed)",C. elegans; 60uM,99.1667%
same,EC50,C. elegans,3 ± 1.3 µM
same,"% effect (motility), DIROIM L4",[2]; 2 µM,0%
same,"% effect (motility), DIROIM L4",[2]; 10 µM,0%
same,"% effect (motility), DIROIM L4",[2]; 50 µM,5%
same,EC50,Pristionchus pacificus,49.2 µM
same,mean % any phene,Pristionchus pacificus; conc 3.75,0%
same,rep 1 atypical locomotion,Pristionchus pacificus; conc 3.75,0
same,rep 1 coiled,Pristionchus pacificus; conc 3.75,0
same,rep 1 no phene,Pristionchus pacificus; conc 3.75,20
same,rep 1 paralyzed,Pristionchus pacificus; conc 3.75,0
same,rep 2 atypical locomotion,Pristionchus pacificus; conc 3.75,0
same,rep 2 coiled,Pristionchus pacificus; conc 3.75,0
same,rep 2 no phene,Pristionchus pacificus; conc 3.75,20
same,rep 2 paralyzed,Pristionchus pacificus; conc 3.75,0
same,rep 3 atypical locomotion,Pristionchus pacificus; conc 3.75,0
same,rep 3 coiled,Pristionchus pacificus; conc 3.75,0
same,rep 3 no phene,Pristionchus pacificus; conc 3.75,20
same,rep 3 paralyzed,Pristionchus pacificus; conc 3.75,0
same,mean % any phene,Pristionchus pacificus; conc 15,0%
same,rep 1 atypical locomotion,Pristionchus pacificus; conc 15,0
same,rep 1 coiled,Pristionchus pacificus; conc 15,0
same,rep 1 no phene,Pristionchus pacificus; conc 15,20
same,rep 1 paralyzed,Pristionchus pacificus; conc 15,0
same,rep 2 atypical locomotion,Pristionchus pacificus; conc 15,0
same,rep 2 coiled,Pristionchus pacificus; conc 15,0
same,rep 2 no phene,Pristionchus pacificus; conc 15,20
same,rep 2 paralyzed,Pristionchus pacificus; conc 15,0
same,rep 3 atypical locomotion,Pristionchus pacificus; conc 15,0
same,rep 3 coiled,Pristionchus pacificus; conc 15,0
same,rep 3 no phene,Pristionchus pacificus; conc 15,20
same,rep 3 paralyzed,Pristionchus pacificus; conc 15,0
same,mean % any phene,Pristionchus pacificus; conc 60,98.3333%
same,rep 1 atypical locomotion,Pristionchus pacificus; conc 60,9 and 5
same,rep 1 coiled,Pristionchus pacificus; conc 60,4 and 2
same,rep 1 no phene,Pristionchus pacificus; conc 60,0
same,rep 1 paralyzed,Pristionchus pacificus; conc 60,7 and 13
same,rep 2 atypical locomotion,Pristionchus pacificus; conc 60,7 and 10
same,rep 2 coiled,Pristionchus pacificus; conc 60,4 and 2
same,rep 2 no phene,Pristionchus pacificus; conc 60,0
same,rep 2 paralyzed,Pristionchus pacificus; conc 60,9 and 8
same,rep 3 atypical locomotion,Pristionchus pacificus; conc 60,11 and 13
same,rep 3 paralyzed,Pristionchus pacificus; conc 60,6 and 4
FC(F)(F)c1cccc(N2CCN(CC3CCCC3)CC2)c1 [Nemacol-63],"activity ratio, mammalian VAChT Ki to C. elegans in vivo EC50",rat VAChT,1.10
same,Ki,rat VAChT; [3],4.89e-06 M
same,Ki,rat VAChT; [4],8.47e-06 M
same,Ki,rat VAChT; [5],6.68e-06 M
same,Ki,rat VAChT; [6],6.68e-06 M
same,"% effect (motility), DIROIM MF",[1]; 0.016 µM,0%
same,"% effect (motility), DIROIM MF",[1]; 0.08 µM,0%
same,"% effect (motility), DIROIM MF",[1]; 0.4 µM,0%
same,"% effect (motility), DIROIM MF",[1]; 2 µM,0%
same,"% effect (motility), DIROIM MF",[1]; 10 µM,0%
same,atypical locomotion (number of animals),C. elegans; 3.75uM,0 and 4 and 6 and 2
same,coiled (number of animals),C. elegans; 3.75uM,0
same,no phene (number of animals),C. elegans; 3.75uM,20 and 16 and 14 and 18
same,paralyzed (number of animals),C. elegans; 3.75uM,0
same,"any phene: mean % fraction of young adults exhibiting any phenotype (coiled, jerky-Unc or paralyzed)",C. elegans; 3.75uM,18.3333%
same,atypical locomotion (number of animals),C. elegans; 15uM,14 and 16 and 18 and 15 and 17
same,coiled (number of animals),C. elegans; 15uM,3 and 0 and 2 and 1
same,no phene (number of animals),C. elegans; 15uM,0 and 4 and 3
same,paralyzed (number of animals),C. elegans; 15uM,3 and 4 and 0
same,"any phene: mean % fraction of young adults exhibiting any phenotype (coiled, jerky-Unc or paralyzed)",C. elegans; 15uM,94.1667%
same,atypical locomotion (number of animals),C. elegans; 60uM,8 and 10 and 11 and 9 and 14 and 15
same,coiled (number of animals),C. elegans; 60uM,1 and 3 and 2 and 4
same,no phene (number of animals),C. elegans; 60uM,0 and 5 and 1
same,paralyzed (number of animals),C. elegans; 60uM,11 and 7 and 9 and 0
same,"any phene: mean % fraction of young adults exhibiting any phenotype (coiled, jerky-Unc or paralyzed)",C. elegans; 60uM,95%
same,EC50,C. elegans,6.1 ± 2.1 µM
same,"% effect (motility), DIROIM L4",[2]; 10 µM,10%
same,"% effect (motility), DIROIM L4",[2]; 50 µM,0%
same,EC50,Pristionchus pacificus,> 60 µM
same,mean % any phene,Pristionchus pacificus; conc 3.75,0.8333%
same,rep 1 atypical locomotion,Pristionchus pacificus; conc 3.75,0
same,rep 1 coiled,Pristionchus pacificus; conc 3.75,0
same,rep 1 no phene,Pristionchus pacificus; conc 3.75,20
same,rep 1 paralyzed,Pristionchus pacificus; conc 3.75,0
same,rep 2 atypical locomotion,Pristionchus pacificus; conc 3.75,1
same,rep 2 coiled,Pristionchus pacificus; conc 3.75,0
same,rep 2 no phene,Pristionchus pacificus; conc 3.75,19
same,rep 2 paralyzed,Pristionchus pacificus; conc 3.75,0
same,rep 3 atypical locomotion,Pristionchus pacificus; conc 3.75,0
same,rep 3 coiled,Pristionchus pacificus; conc 3.75,0
same,rep 3 no phene,Pristionchus pacificus; conc 3.75,20
same,rep 3 paralyzed,Pristionchus pacificus; conc 3.75,0
same,mean % any phene,Pristionchus pacificus; conc 15,1.667%
same,rep 1 atypical locomotion,Pristionchus pacificus; conc 15,0
same,rep 1 coiled,Pristionchus pacificus; conc 15,0
same,rep 1 no phene,Pristionchus pacificus; conc 15,20
same,rep 1 paralyzed,Pristionchus pacificus; conc 15,0
same,rep 2 atypical locomotion,Pristionchus pacificus; conc 15,0
same,rep 2 coiled,Pristionchus pacificus; conc 15,0
same,rep 2 no phene,Pristionchus pacificus; conc 15,19 and 20
same,rep 3 atypical locomotion,Pristionchus pacificus; conc 15,0
same,rep 3 coiled,Pristionchus pacificus; conc 15,0
same,rep 3 no phene,Pristionchus pacificus; conc 15,20 and 19
same,mean % any phene,Pristionchus pacificus; conc 60,10.8333%
same,rep 1 atypical locomotion,Pristionchus pacificus; conc 60,4 and 3
same,rep 1 no phene,Pristionchus pacificus; conc 60,16
same,rep 1 paralyzed,Pristionchus pacificus; conc 60,0
same,rep 2 atypical locomotion,Pristionchus pacificus; conc 60,1 and 2
same,rep 2 coiled,Pristionchus pacificus; conc 60,0
same,rep 2 no phene,Pristionchus pacificus; conc 60,18
same,rep 3 coiled,Pristionchus pacificus; conc 60,0
same,rep 3 no phene,Pristionchus pacificus; conc 60,20 and 19
same,rep 3 paralyzed,Pristionchus pacificus; conc 60,0
